Measurements published in patent US20040009464A1, “Methods for identifying compounds for inhibition of neoplastic lesions, and pharmacetical compositions containing such compounds” (priority 1998, published 2004).

Tests used:
[1] = system: polyps in APC patients; assay: Clinical prevention trial in patients with adenomatous polyposis coli (APC); type: in vivo, human
From the text: The first clinical trial involved patients with APC. using exisulind. In that study, each patient had already had his/her colon removed, except for a small section of colon adjacent the rectum (where the small intestine was attached) to preserve rectal function. However, such a patient commonly forms polyps in the small remaining colonic section, which polyps require periodic removal (e.g., by electrocautery).
That trial where exisulind was selected was a prevention trial designed to evaluate the anti-neoplastic characteristics of the drug by comparing the cumulative number of new polyps formed over twelve months by the drug and placebo groups. Eligible patients were those who form between 9 and 44 polyps per year. Patients were fully ablated (had all polyps removed) at the start of the study, at the end of 6 months and at the end of 12 months. The study enrolled thirty-four eligible patients. […] Based on the median number of polyps produced in the first six months of the study, patients treated with exisulind developed approximately one-third the number of polyps as patients treated with placebo (median values 9 polyps/year and 26 polyps/year, respectively; p=0.013). […]

[2] = system: β-catenin and PKG in SW480 cells; assay: Western blot of β-catenin and PKG in SW480 cells; type: cell-based, human
Procedure: SW480 cells treated with exisulind as described previously are harvested from the microfuge tubes by rinsing once with ice-cold PBS. The cells are lysed by modified RIPA buffer for 15 minutes with agitation. The cell lysate is spun down in a cold room. The supernatants are transferred to fresh microcentrifuge tubes immediately after spinning. BioRad DC Protein Assay (Temecula, CA) is performed to determine the protein concentrations in samples. The samples are normalized for protein concentration, as described above.
50 μg of each sample is loaded to 10% SDS gel. SDS-PAGE is performed, and the proteins then are transferred to a nitrocellulose membrane. The blotted nitrocellulose membrane are blocked in freshly prepared TBST containing 5% nonfat dry milk for one hour at room temperature with constant agitation.
A goat-anti-PKG primary antibody is diluted to the recommended concentration/dilution in fresh TBST/5% nonfat dry milk. The nitrocellulose membrane is placed in the primary antibody solution and incubated one hour at room temperature with agitation. The nitrocellulose membrane is washed three times for ten minutes each with TBST. […]
This observation was made by culturing SW480 cells with either 200, 400 or 600 μM exisulind or vehicle (0.1% DMSO). […] Immuno-reactive protein can be detected by Western blot. […]

[3] = system: premalignant lesions in mouse mammary gland organ culture; assay: Mammary gland organ culture model; type: cell-based; conditions: FIG. 17
From the text: Test compounds identified by the above methods can be tested for antineoplastic activity by their ability to inhibit the incidence of pre-neoplastic lesions in a mammary gland organ culture system. This mouse mammary gland organ culture technique has been successfully used by other investigators to study the effects of known antineoplastic agents such as certain NSAIDs, retinoids, tamoxifen, selenium, and certain natural products, and is useful for validation of the screening method of the present invention.
For example, female BALB/c mice can be treated with a combination of estradiol and progesterone daily, in order to prime the glands to be responsive to hormones in vitro. The animals are sacrificed, and thoracic mammary glands are excised aseptically and incubated for ten days in growth media supplemented with insulin, prolactin, hydrocortisone, and aldosterone. DMBA (7,12-dimethylbenz(a)anthracene) is added to medium to induce the formation of premalignant lesions Fully developed glands are then deprived of prolactin, hydrocortisone, and aldosterone, resulting in the regression of the glands but not the pre-malignant lesions.
The test compound is dissolved in DMSO and added to the culture media for the duration of the culture period. At the end of the culture period, the glands are fixed in 10% formalin, stained with alum camine, and mounted on glass slides. The incidence of forming mammary lesions is the ratio of the glands with mammary lesions to […]. The incidence of mammary lesions in test compound treated glands is compared with that of the untreated glands.
The extent of the area occupied by the mammary lesions can be quantitated by projecting an image of the gland onto a digitation pad. The area covered by the gland is traced on the pad and considered as 100% of the area. The space covered by each of the non-regressed structures is also outlined on the digitization pad and quantitated by the computer.
Mammary gland organ culture experiment were performed as previously described (Mehta and Moon, Cancer Research, 46: 5832-5835, 1986). […]

## CC1=C(CC(=O)O)c2cc(F)ccc2/C1=C\c1ccc(S(C)(=O)=O)cc1 [Exisulind, 5-fluoro-2-methyl-1-(p-methylsulfonylbenzylidene)-3-indenylacetic acid]
[1]; entire 12 months of the study
  median number of polyps, entire 12 months: 18 polyps/year
[1]; first six months of the study
  median number of polyps, first six months: 9 polyps/year
[2]; SW480, 200, 400 or 600 μM, 48 hours, Western blot
  reduction of β-catenin expression compared to control: 50%
[2]; SW480, 48 hours
  PKG level by Western blot: increase of PKG
[3]
  inhibition of premalignant lesions in mammary gland organ culture: effectively inhibit the formation of premalignant lesions
